{"source": "patent US5446057A", "about": "“Substituted tetrahydropyridine and piperidine carboxylic acids as muscarinic antagonists” (priority 1993, dated 1995)", "key": {"[1]": {"tested_on": "patients with effort myocardial ischemia", "settings": "cited from earlier work"}, "m2 receptor": {"target": "T1, m2 receptor (Homo sapiens, UniProt P08172)", "T1 construct": "expressed in transfected cells; host or cells: CHO cells (membranes)", "T1 sequence (P08172 1-466)": "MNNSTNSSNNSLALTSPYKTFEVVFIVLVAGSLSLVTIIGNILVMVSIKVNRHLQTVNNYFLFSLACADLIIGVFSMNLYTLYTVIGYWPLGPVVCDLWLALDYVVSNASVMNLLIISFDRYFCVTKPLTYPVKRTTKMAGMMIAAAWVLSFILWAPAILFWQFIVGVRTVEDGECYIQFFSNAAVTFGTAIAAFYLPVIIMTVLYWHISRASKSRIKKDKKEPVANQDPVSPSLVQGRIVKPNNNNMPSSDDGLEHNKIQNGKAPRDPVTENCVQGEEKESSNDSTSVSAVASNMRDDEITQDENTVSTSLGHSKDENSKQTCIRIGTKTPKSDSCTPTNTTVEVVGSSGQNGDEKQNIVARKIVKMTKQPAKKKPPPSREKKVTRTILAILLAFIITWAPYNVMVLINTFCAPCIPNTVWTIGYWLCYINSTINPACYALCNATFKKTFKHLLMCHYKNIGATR", "experiment": "[3H]-NMS receptor binding using membranes from CHO cells expressing cloned human muscarinic receptor m2", "settings": "[3H]-NMS 100 pM, pH 7.4, 120 minutes at 25° C.", "experimental": "(§1) [^3 H]-N-methylscopolamine ([^3 H]-NMS) Receptor Binding Using Membranes From Chinese Hamster Ovary (CHO) Cells Selectively Expressing One of the Five Cloned Human Muscarinic Receptors\n(§2) Following membrane harvest and storage at -80° C., aliquots of membranes (approximately 10-40 μg protein) are added to 2 mL of 10 mM sodium potassium phosphate buffer, pH 7.4, containing 100 pM [^3 H]-NMS; (78.9 Ci/mmol) and the appropriate test compound. Nonspecific binding is defined as that unaffected by the inclusion of 1 μM atropine. The reaction is initiated by the addition of the membranes and allowed to proceed for 120 minutes at 25° C. with shaking. Termination of the incubation is achieved by rapid vacuum filtration through GF/B Whatman filters using a Brandel Cell Harvester with the filters being washed three times with 5 mL ice-chilled buffer. 10 mL of Beckman Ready Gel scintillation cocktail are added to the filters in vials and the samples are allowed to set overnight before vortexing and counting in a Beckman 800 scintillation counter. IC50 values are calculated using a logit equation."}, "m4 receptor": {"target": "T2, m4 receptor (Homo sapiens, UniProt P08173)", "T2 construct": "expressed in transfected cells; host or cells: CHO cells (membranes)", "T2 sequence (P08173 1-479)": "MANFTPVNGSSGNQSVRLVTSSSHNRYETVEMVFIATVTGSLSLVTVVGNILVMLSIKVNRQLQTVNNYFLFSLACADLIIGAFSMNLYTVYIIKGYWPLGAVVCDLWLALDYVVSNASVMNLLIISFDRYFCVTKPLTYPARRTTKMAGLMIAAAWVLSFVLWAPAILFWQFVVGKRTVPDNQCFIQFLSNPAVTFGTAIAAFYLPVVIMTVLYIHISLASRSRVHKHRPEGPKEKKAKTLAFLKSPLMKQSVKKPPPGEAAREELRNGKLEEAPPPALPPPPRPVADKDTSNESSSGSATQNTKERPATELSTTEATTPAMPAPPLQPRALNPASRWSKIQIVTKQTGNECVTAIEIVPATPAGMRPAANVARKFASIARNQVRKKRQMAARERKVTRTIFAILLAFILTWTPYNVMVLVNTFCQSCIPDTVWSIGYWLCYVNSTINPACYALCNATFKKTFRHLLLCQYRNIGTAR", "experiment": "[3H]-NMS receptor binding using membranes from CHO cells expressing cloned human muscarinic receptor m4", "settings": "[3H]-NMS 100 pM, pH 7.4, 120 minutes at 25° C.", "experimental": "as §1, §2"}, "M2 receptors": {"tested_on": "M2 receptors", "settings": "literature; cited from earlier work"}, "M3 receptors": {"tested_on": "M3 receptors", "settings": "literature; cited from earlier work"}, "m5 receptor": {"target": "T3, m5 receptor (Homo sapiens, UniProt P08912)", "T3 construct": "expressed in transfected cells; host or cells: CHO cells (membranes)", "T3 sequence (P08912 1-532)": "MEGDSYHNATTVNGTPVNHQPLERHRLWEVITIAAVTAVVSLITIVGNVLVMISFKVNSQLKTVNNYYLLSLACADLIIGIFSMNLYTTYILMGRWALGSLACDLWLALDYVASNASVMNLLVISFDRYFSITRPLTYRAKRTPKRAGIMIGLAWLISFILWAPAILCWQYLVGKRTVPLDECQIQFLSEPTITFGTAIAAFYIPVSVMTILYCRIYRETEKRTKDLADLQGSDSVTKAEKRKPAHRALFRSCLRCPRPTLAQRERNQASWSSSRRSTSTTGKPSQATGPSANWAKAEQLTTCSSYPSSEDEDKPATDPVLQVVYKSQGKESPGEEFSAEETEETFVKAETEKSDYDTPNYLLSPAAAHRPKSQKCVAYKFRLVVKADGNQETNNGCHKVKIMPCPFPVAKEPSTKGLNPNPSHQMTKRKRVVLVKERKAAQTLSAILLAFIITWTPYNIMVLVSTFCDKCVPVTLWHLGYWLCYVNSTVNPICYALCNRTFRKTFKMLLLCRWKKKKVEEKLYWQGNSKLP", "experiment": "[3H]-NMS receptor binding using membranes from CHO cells expressing cloned human muscarinic receptor m5", "settings": "[3H]-NMS 100 pM, pH 7.4, 120 minutes at 25° C.", "experimental": "as §1, §2"}, "m3 receptor": {"target": "m3 receptor (Homo sapiens, UniProt P20309)", "sequence (P20309 whole entry)": "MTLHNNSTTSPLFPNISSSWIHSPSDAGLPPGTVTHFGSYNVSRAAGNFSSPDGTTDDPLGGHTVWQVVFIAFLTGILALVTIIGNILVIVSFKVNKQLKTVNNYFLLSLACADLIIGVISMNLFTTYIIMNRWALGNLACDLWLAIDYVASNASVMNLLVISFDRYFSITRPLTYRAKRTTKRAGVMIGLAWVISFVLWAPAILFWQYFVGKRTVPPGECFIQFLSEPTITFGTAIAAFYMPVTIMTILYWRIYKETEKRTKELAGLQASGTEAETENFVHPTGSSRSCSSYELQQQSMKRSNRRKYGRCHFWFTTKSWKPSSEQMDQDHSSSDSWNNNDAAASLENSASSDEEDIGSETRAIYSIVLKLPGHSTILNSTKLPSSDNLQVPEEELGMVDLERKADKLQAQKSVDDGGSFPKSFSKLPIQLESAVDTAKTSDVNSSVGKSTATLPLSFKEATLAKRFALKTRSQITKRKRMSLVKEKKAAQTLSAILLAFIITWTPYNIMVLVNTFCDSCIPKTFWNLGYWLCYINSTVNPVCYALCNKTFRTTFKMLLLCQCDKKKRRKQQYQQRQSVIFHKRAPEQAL", "experiment": "[3H]-NMS receptor binding using membranes from CHO cells expressing cloned human muscarinic receptor m3", "settings": "[3H]-NMS 100 pM, pH 7.4, 120 minutes at 25° C.", "experimental": "as §1, §2"}, "m1 receptor": {"target": "T4, m1 receptor (Homo sapiens, UniProt P11229)", "T4 construct": "expressed in transfected cells; host or cells: CHO cells (membranes)", "T4 sequence (P11229 1-460)": "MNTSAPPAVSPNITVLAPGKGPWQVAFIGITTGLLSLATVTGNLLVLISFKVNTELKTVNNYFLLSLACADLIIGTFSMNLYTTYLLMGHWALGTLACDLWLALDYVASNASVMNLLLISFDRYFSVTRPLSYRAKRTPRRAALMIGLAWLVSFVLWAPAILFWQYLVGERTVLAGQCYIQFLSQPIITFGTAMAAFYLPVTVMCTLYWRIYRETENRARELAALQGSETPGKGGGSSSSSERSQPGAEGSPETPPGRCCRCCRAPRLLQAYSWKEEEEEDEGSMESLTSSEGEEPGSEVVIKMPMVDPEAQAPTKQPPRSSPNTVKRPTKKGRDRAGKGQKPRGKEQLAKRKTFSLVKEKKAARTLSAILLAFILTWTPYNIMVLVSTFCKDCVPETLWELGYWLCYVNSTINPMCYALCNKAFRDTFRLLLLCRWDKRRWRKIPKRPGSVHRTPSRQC", "experiment": "[3H]-NMS receptor binding using membranes from CHO cells expressing cloned human muscarinic receptor m1", "settings": "[3H]-NMS 100 pM, pH 7.4, 120 minutes at 25° C.", "experimental": "as §1, §2"}, "[2]": {"settings": "urinary incontinence; cited from earlier work"}, "Hm1": {"target": "T5, Hm1 (Homo sapiens, UniProt P11229)", "T5 construct": "expressed in transfected cells; host or cells: CHO Hm1 cells", "T5 sequence (P11229 1-460)": "T4 sequence (P11229 1-460)", "assay_type": "cell-based", "experimental": "CHO Hm1, Hm3, or Hm5 cells are grown at 37° C. with 5% CO2 in Dulbecco's modified Eagle's medium (DMEM) supplemented with 10% fetal bovine serum and 1% nonessential amino acids. […] After 48 hours, the medium is aspirated and the cells are washed 2 times with 1 mL MEM containing 10 mM LiCl. 0.5 mLMEM/LiCl then is added to each well and allowed to incubate at 37° C. for at least 15 minutes. […] For antagonist experiments, the appropriate antagonist is added simultaneously with carbachol (3 μM for m1, 5 μM for m3, and 3 μM for m5). After waiting at least 15 minutes, the TCA extract is applied to Dowex-formate columns (Biorad AG 1-X8 resin, formate form, 100-200 mesh). The wells are rinsed with 0.5 mL distilled H2 O and also applied to the columns. The columns are washed 4 times with 3 mL 5 mMmyo-inositol and then total [^3 H]-inositol phosphates are eluted into vials with two 2 mL washes of 1 mM ammonium formate containing 0.1M formic acid. Beckman Ready Gel scintillation cocktail (10 mL) is added and the samples counted in a Beckman 2800 scintillation counter. The efficacy of agonists is estimated from the maximal effect of the compounds on PI turnover (expressed as a percent of the stimulation produced by carbachol (1 mM)). EC50 and IC50 values are also calculated for both agonists and antagonists, respectively."}}, "note": "pIC50: −log10 of the molar value."}
{"smiles": "CN1CCN(CC(=O)N2c3ccccc3C(=O)Nc3cccnc32)CC1", "note": "[pirenzepine]", "values": [{"measurement": "exercise tolerance", "setting": "[1]", "result": "improve exercise tolerance"}]}
{"smiles": "CCN1CCC(c2ccccc2)=C(C(=O)OC(C)C)C1", "note": "[Example 4, 1-Ethyl-1,2,5,6-tetrahydro-4-phenyl-3-pyridinecarboxylic acid, 1-methylethyl ester]", "values": [{"measurement": "pIC50", "setting": "m2 receptor", "result": 6.46}, {"measurement": "pIC50", "setting": "m4 receptor", "result": 6.19}]}
{"smiles": "COc1ccccc1CNCCCCCCNCCCCCCCCNCCCCCCNCc1ccccc1OC", "note": "[methoctramine]", "values": [{"measurement": "affinity for M2 receptors", "setting": "M2 receptors", "result": "high affinity"}]}
{"smiles": "O[Si](CCCN1CCCCC1)(c1ccccc1)C1CCCCC1", "note": "(stereo not shown) [hexahydrosiladifenidol]", "values": [{"measurement": "affinity for M3 receptors", "setting": "M3 receptors", "result": "high affinity"}]}
{"smiles": "CCN1CC=C(c2ccccc2)C(C(=O)OCCc2ccc(Cl)cc2)C1", "note": "(stereo not shown) [Example 16, 1-Ethyl-1,2,3,6-tetrahydro-4-phenyl-3-pyridinecarboxylic acid, 2-(4-chlorophenyl)ethyl ester]", "values": [{"measurement": "pIC50", "setting": "m2 receptor", "result": 5.89}, {"measurement": "pIC50", "setting": "m4 receptor", "result": 5.73}]}
{"smiles": "CCN1CCC(c2ccccc2)=C(C(=O)NC)C1", "note": "[D, 1-Ethyl-1,2,5,6-tetrahydro-4-phenyl-N-methyl-3-pyridinecarboxamide]", "values": [{"measurement": "pIC50", "setting": "m5 receptor", "result": 4.31}, {"measurement": "pIC50", "setting": "m3 receptor", "result": 4.41}, {"measurement": "pIC50", "setting": "m2 receptor", "result": 4.46}, {"measurement": "pIC50", "setting": "m1 receptor", "result": 4.68}, {"measurement": "pIC50", "setting": "m4 receptor", "result": 4.14}]}
{"smiles": "C[N+]1(C)CCC(OC(=O)C(c2ccccc2)c2ccccc2)CC1", "note": "[Example 4-DAMP, 4-diphenylacetoxy-N-methylpiperidine methobromide]", "values": [{"measurement": "affinity for M3 receptors", "setting": "M3 receptors", "result": "high affinity"}]}
{"smiles": "COC(=O)C1=C(C)CCN(C)C1", "note": "[E, 1,4-Dimethyl-1,2,5,6-tetrahydro-3-pyridinecarboxylic acid, methyl ester]", "values": [{"measurement": "pIC50", "setting": "m5 receptor", "result": 4.13}, {"measurement": "pIC50", "setting": "m3 receptor", "result": 4.17}, {"measurement": "pIC50", "setting": "m2 receptor", "result": 4.98}, {"measurement": "pIC50", "setting": "m1 receptor", "result": 4.21}, {"measurement": "pIC50", "setting": "m4 receptor", "result": "< 4.30"}]}
{"smiles": "CCN(CC)CC1CCCCN1CC(=O)N1c2ccccc2C(=O)Nc2cccnc21", "note": "(stereo not shown) [AF-DX 116]", "values": [{"measurement": "affinity for M2 receptors", "setting": "M2 receptors", "result": "high affinity"}]}
{"smiles": "CCN(CC)CC#CCOC(=O)C(O)(c1ccccc1)C1CCCCC1", "note": "(stereo not shown) [oxybutynin]", "values": [{"measurement": "side effects limiting use", "setting": "[2]", "result": "mydriasis, dry mouth"}]}
{"smiles": "CCCCC1=C(C(=O)OC)CN(CCC)CC1", "note": "[F, 1-Propyl-1,2,5,6-tetrahydro-4-butyl-3-pyridinecarboxylic acid, methyl ester]", "values": [{"measurement": "pIC50", "setting": "m5 receptor", "result": 4.38}, {"measurement": "pIC50", "setting": "m3 receptor", "result": 4.83}, {"measurement": "pIC50", "setting": "m2 receptor", "result": 5.27}, {"measurement": "pIC50", "setting": "m1 receptor", "result": 4.76}, {"measurement": "pIC50", "setting": "m4 receptor", "result": 4.30}]}
{"smiles": "CCN1CCC(c2ccccc2)=C(C(=O)N(C)C)C1", "note": "[C, 1-Ethyl-1,2,5,6-tetrahydro-4-phenyl-N,N-dimethyl-3-pyridinecarboxamide]", "values": [{"measurement": "pIC50", "setting": "m5 receptor", "result": 5.22}, {"measurement": "pIC50", "setting": "m3 receptor", "result": 5.05}, {"measurement": "pIC50", "setting": "m2 receptor", "result": 4.91}, {"measurement": "pIC50", "setting": "m1 receptor", "result": 5.30}, {"measurement": "pIC50", "setting": "m4 receptor", "result": 4.87}, {"measurement": "muscarinic antagonism (in words)", "setting": "Hm1", "result": "potent antagonists"}]}
